{
  "source": "EPA's ToxRefDB 2",
  "key": {"[1]": {"tested_on": "rat", "details": "Prenatal developmental toxicity study, Oral, Gavage/Intubation, dose end: 19 GD"}, "[2]": {"tested_on": "rat", "details": "Subchronic oral toxicity in rodents, wistar, Feed, dose end: 90 day, group: systemic, systemic / in life observation / clinical signs / motor activity + systemic / organ weight / kidney / relative to body weight + systemic / …"}, "[3]": {"tested_on": "rabbit", "details": "Prenatal developmental toxicity study; new zealand white; Oral; Gavage/Intubation; dose end: 18 GD; group: maternal; systemic / in life observation / body weight / body weight gain"}, "[4]": {"tested_on": "mouse", "details": "Subchronic oral toxicity in rodents, b6c3f1, Gavage/Intubation, dose end: 13 week, group: systemic"}, "[5]": {"tested_on": "mouse", "details": "Carcinogenicity; cd1; Oral; Gavage/Intubation; dose end: 104 week; group: systemic; systemic / pathology microscopic / gallbladder / adenoma + systemic / pathology microscopic / gallbladder / hemangioma + systemic / …"}, "[6]": {"tested_on": "rat", "details": "Subchronic oral toxicity in rodents, fischer, Gavage/Intubation, dose end: 90 day, group: systemic, systemic / clinical chemistry / cholesterol / cholesterol + systemic / in life observation / food consumption / food consumption + systemic…"}, "[7]": {"tested_on": "rat", "details": "Chronic toxicity, fischer, Oral, Gavage/Intubation, dose end: 1 year, group: systemic"}, "[8]": {"details": "group: developmental, systemic / in life observation / body weight / fetal weight + developmental / developmental malformation / bone / unossified + developmental…"}, "[9]": {"details": "group: maternal, reproductive / reproductive performance / resorptions / resorptions + systemic / in life observation / body weight / body weight + systemic…"}, "[10]": {"details": "systemic / clinical chemistry / fatty acids / fatty acid + systemic / pathology microscopic / bone marrow / hypocellularity + systemic / …"}, "[11]": {"details": "systemic / pathology microscopic / liver / hypertrophy"}, "[12]": {"details": "systemic / in life observation / body weight / body weight"}, "[13]": {"details": "systemic / in life observation / body weight / body weight + systemic / organ weight / adrenal gland / relative to body weight + systemic / …"}},
  "data": [
    {"smiles": "Cc1cc(Cl)ccc1OCC(=O)OCCCCCC(C)C", "note": "[MCPA-isooctyl]", "values": [
      {"measurement": "LEL", "setting": "[1]; group: developmental, developmental / developmental malformation / bone / ossification sites", "result": 40, "unit": "mg/kg/day"},
      {"measurement": "LOAEL", "setting": "[1]; [8]", "result": 120, "unit": "mg/kg/day"},
      {"measurement": "NEL", "setting": "[1]; [8]", "result": 15, "unit": "mg/kg/day"},
      {"measurement": "NOAEL", "setting": "[1]; [8]", "result": 40, "unit": "mg/kg/day"},
      {"measurement": "LEL", "setting": "[1]; [9]", "result": 120, "unit": "mg/kg/day"},
      {"measurement": "LOAEL", "setting": "[1]; [9]", "result": 120, "unit": "mg/kg/day"},
      {"measurement": "NEL", "setting": "[1]; [9]", "result": 40, "unit": "mg/kg/day"},
      {"measurement": "NOAEL", "setting": "[1]; [9]", "result": 40, "unit": "mg/kg/day"},
      {"measurement": "LEL", "setting": "[2]", "result": 54, "unit": "mg/kg/day"},
      {"measurement": "LOAEL", "setting": "[2]", "result": 54, "unit": "mg/kg/day"},
      {"measurement": "NEL", "setting": "[2]", "result": 5, "unit": "mg/kg/day"},
      {"measurement": "NOAEL", "setting": "[2]", "result": 5, "unit": "mg/kg/day"}
    ]},
    {"smiles": "Cc1cccc(C)c1NC(=O)CC12CCCN1CCC2.Cl", "note": "[Pilsicainide hydrochloride]", "values": [
      {"measurement": "LEL", "setting": "[3]", "result": 10, "unit": "mg/kg/day"},
      {"measurement": "LOAEL", "setting": "[3]", "result": "> 20", "unit": "mg/kg/day"},
      {"measurement": "NEL", "setting": "[3]", "result": 5, "unit": "mg/kg/day"},
      {"measurement": "NOAEL", "setting": "[3]", "result": "≥ 20", "unit": "mg/kg/day"}
    ]},
    {"smiles": "Cc1c(C)c2c(c(C)c1O)CCC(C)(COc1ccc(CC3SC(=O)NC3=O)cc1)O2", "note": "(configuration not stated) [Troglitazone]", "values": [
      {"measurement": "LOAEL", "setting": "[4]; [10]", "result": "> 1200", "unit": "mg/kg/day"},
      {"measurement": "NOAEL", "setting": "[4]; [10]", "result": "≥ 1200", "unit": "mg/kg/day"},
      {"measurement": "LEL", "setting": "[4]; [11]", "result": 50, "unit": "mg/kg/day"},
      {"measurement": "NEL", "setting": "[4]; [11]", "result": "< 50", "unit": "mg/kg/day"},
      {"measurement": "LEL", "setting": "[5]", "result": 50, "unit": "mg/kg/day"},
      {"measurement": "LOAEL", "setting": "[5]", "result": "> 50", "unit": "mg/kg/day"},
      {"measurement": "NEL", "setting": "[5]", "result": 4, "unit": "mg/kg/day"},
      {"measurement": "NOAEL", "setting": "[5]", "result": "≥ 50", "unit": "mg/kg/day"},
      {"measurement": "LEL", "setting": "[6]", "result": 20, "unit": "mg/kg/day"},
      {"measurement": "LOAEL", "setting": "[6]", "result": "> 2500", "unit": "mg/kg/day"},
      {"measurement": "NEL", "setting": "[6]", "result": "< 20", "unit": "mg/kg/day"},
      {"measurement": "NOAEL", "setting": "[6]", "result": "≥ 2500", "unit": "mg/kg/day"},
      {"measurement": "LEL", "setting": "[7]; [12]", "result": 25, "unit": "mg/kg/day"},
      {"measurement": "NEL", "setting": "[7]; [12]", "result": "< 25", "unit": "mg/kg/day"},
      {"measurement": "LOAEL", "setting": "[7]; [13]", "result": "> 100", "unit": "mg/kg/day"},
      {"measurement": "NOAEL", "setting": "[7]; [13]", "result": "≥ 100", "unit": "mg/kg/day"}
    ]}
  ]
}
